Experimental data as given in ChEMBL document CHEMBL1201862, “PubChem BioAssay data set” (2004).
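Exposure lasted 48 hours, with cells grown in 96-well plates and compounds tested at five concentrations. GI50 = concentration required for 50% inhibition of growth.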 The source made the active and inactive calls. Rule as the data show it: active = GI50 up to about 1.1 µM and inactive = higher.

Experiments:
Experiment in all cases: inhibition of tumour cell growth, NCI panel, 48 h
[1] = system: EKVX
[2] = system: HOP-62
[3] = system: KM12
[4] = system: MDA-MB-435
[5] = system: HOP-92
[6] = system: PC-3
[7] = system: 786-0
[8] = system: Malme-3M
[9] = system: UACC-257
[10] = system: BT-549
[11] = system: M14
[12] = system: OVCAR-3
[13] = system: SF-295
[14] = system: MDA-MB-231
[15] = system: A549
[16] = system: SR
[17] = system: CAKI-1
[18] = system: MCF7
[19] = system: SNB-75
[20] = system: LOX IMVI

Measured: GI50

CC(C)(Cl)C(Br)CCC(C)(Br)C(Br)CBr (configuration not stated)
inactive: [1] 25.4 µM | [2] 16.1 µM | [3] 17.8 µM | [4] 17.8 µM | [5] 21.5 µM | [6] 24.9 µM | [7] 17.4 µM | [8] 17.4 µM | [9] 18.7 µM | [10] 22.3 µM | [11] 17.7 µM | [12] 15.9 µM | [13] 17.7 µM | [14] 12.9 µM | [15] 30.1 µM

CC(=O)OCC1OC(SC2OC(COC(C)=O)C(OC(C)=O)C(OC(C)=O)C2OC(C)=O)C(OC(C)=O)C(OC(C)=O)C1OC(C)=O (configuration not stated)
inactive: [1] > 100 µM | [2] > 100 µM | [16] > 100 µM | [3] > 100 µM | [4] > 100 µM | [17] > 100 µM | [18] > 100 µM | [7] > 100 µM | [19] > 100 µM | [8] > 100 µM | [9] > 100 µM | [10] > 100 µM | [12] > 100 µM | [13] > 100 µM | [14] > 100 µM | [20] > 100 µM | [15] > 100 µM

O=c1[nH]c(=O)n(COCc2ccccc2)c2ccc([N+](=O)[O-])cc12
inactive: [1] > 100 µM | [16] > 100 µM | [3] > 100 µM | [4] > 100 µM | [5] > 100 µM | [17] > 100 µM | [6] > 100 µM | [18] > 100 µM | [7] 80 µM | [19] > 100 µM | [9] > 100 µM | [11] > 100 µM | [12] > 100 µM | [13] > 100 µM | [14] > 100 µM | [20] > 100 µM | [15] > 100 µM

O=C(/C=C/c1ccc(O)c(O)c1O)OCCc1ccccc1
inactive: [1] > 100 µM | [2] 26.2 µM | [16] 15.8 µM | [3] 28.9 µM | [4] 17.5 µM | [5] 56.1 µM | [17] > 100 µM | [6] 48.9 µM | [18] 14.5 µM | [7] 16 µM | [8] > 100 µM | [9] > 100 µM | [11] 20 µM | [12] 21.6 µM | [13] 19.2 µM | [14] 24.9 µM | [20] 15.2 µM | [15] 26.2 µM

CCOC(=O)[C@@H]1[C@@H](c2ccccc2)N(C)O[C@@]1(c1ccccc1)C(F)(F)F
inactive: [1] 86.3 µM | [2] > 100 µM | [3] 58.9 µM | [4] 28.4 µM | [5] > 100 µM | [17] > 100 µM | [6] 58.5 µM | [7] > 100 µM | [19] > 100 µM | [8] 44.2 µM | [9] 55 µM | [10] > 100 µM | [11] 31 µM | [12] 97.1 µM | [13] 64.6 µM | [14] > 100 µM | [20] 70.5 µM | [15] 47.3 µM

COc1cc(OC2OC(CO)C(O)C(O)C2O)c2c(c1)O[C@@H]1[C@H](O)Oc3cc(OC)c(OC)cc3[C@]1(O)C2=O (some centres not stated)
inactive: [1] > 25 µM | [2] > 25 µM | [16] > 25 µM | [3] > 25 µM | [4] > 25 µM | [5] > 25 µM | [17] > 25 µM | [6] > 25 µM | [18] > 25 µM | [7] > 25 µM | [19] > 25 µM | [9] > 25 µM | [11] > 25 µM | [12] > 25 µM | [13] > 25 µM | [14] > 25 µM | [20] > 25 µM | [15] > 25 µM

CCOP(=O)(OCC)C(c1ccccc1)N(C(=O)NC(F)(F)F)c1cccc(F)c1 (configuration not stated)
inactive: [1] 94.8 µM | [2] > 100 µM | [16] > 100 µM | [3] > 100 µM | [4] > 100 µM | [17] > 100 µM | [6] 45.8 µM | [18] > 100 µM | [7] > 100 µM | [19] > 100 µM | [8] > 100 µM | [9] > 100 µM | [11] > 100 µM | [12] > 100 µM | [13] > 100 µM | [14] > 100 µM | [20] > 100 µM | [15] > 100 µM

c1ccc([B-]2(c3ccccc3)OCCc3cccc[n+]32)cc1
inactive: [1] 91.8 µM | [2] > 100 µM | [16] 22.8 µM | [3] 96.4 µM | [4] 33.3 µM | [5] 28.2 µM | [17] 33 µM | [6] 18.5 µM | [7] 70.1 µM | [8] 42.4 µM | [9] 80.7 µM | [10] 31.6 µM | [11] 36.2 µM | [12] 51.8 µM | [13] 67 µM | [14] 84.5 µM | [20] 97.3 µM | [15] 84.9 µM

O=C(Nc1cccc(F)c1)c1cc2ccc(O)cc2o/c1=N\c1cccc(F)c1
inactive: [1] 3.78 µM | [2] 27.9 µM | [16] 4.5 µM | [3] 6.95 µM | [4] 5.12 µM | [17] 15.3 µM | [6] 17.9 µM | [18] 3.58 µM | [7] 7.85 µM | [8] 4.37 µM | [9] 9.68 µM | [10] 4.82 µM | [11] 7.73 µM | [12] 4.91 µM | [13] 13.6 µM | [20] 3.27 µM | [15] 3.97 µM

N/N=C1/CCCc2nonc21
inactive: [1] > 100 µM | [2] > 100 µM | [16] > 100 µM | [3] > 100 µM | [4] > 100 µM | [5] > 100 µM | [17] > 100 µM | [6] > 100 µM | [18] > 100 µM | [7] > 100 µM | [8] > 100 µM | [9] > 100 µM | [11] > 100 µM | [12] > 100 µM | [13] > 100 µM | [14] > 100 µM | [20] > 100 µM | [15] > 100 µM

C/C(O[Si](C(C)C)(C(C)C)C(C)C)=C(\C)C(=O)N(C)c1ccccc1Cl
inactive: [1] > 100 µM | [2] > 100 µM | [3] > 100 µM | [4] > 100 µM | [5] > 100 µM | [17] > 100 µM | [7] > 100 µM | [19] 81.5 µM | [8] > 100 µM | [9] > 100 µM | [10] > 100 µM | [11] > 100 µM | [12] > 100 µM | [13] > 100 µM | [14] > 100 µM | [20] > 100 µM | [15] > 100 µM

C(=C\C(SCc1ccccc1)SCc1ccccc1)/c1ccccc1
inactive: [1] > 10 µM | [2] > 10 µM | [16] > 10 µM | [3] > 10 µM | [5] > 10 µM | [17] > 10 µM | [6] > 10 µM | [18] > 10 µM | [7] > 10 µM | [19] > 10 µM | [8] > 10 µM | [9] > 10 µM | [11] > 10 µM | [12] > 10 µM | [13] > 10 µM | [14] > 10 µM | [20] > 10 µM | [15] > 10 µM

Cc1cs/c(=N/c2ccccc2)n1CCC(O)(P(=O)(O)O)P(=O)(O)O
inactive: [1] > 100 µM | [2] > 100 µM | [3] > 100 µM | [17] > 100 µM | [6] > 100 µM | [18] > 100 µM | [7] > 100 µM | [19] > 100 µM | [8] > 100 µM | [9] > 100 µM | [10] > 100 µM | [11] > 100 µM | [12] > 100 µM | [13] > 100 µM | [14] > 100 µM | [20] > 100 µM | [15] > 100 µM

O=S(=O)(/N=c1\[nH]c(-c2cc(O)c(O)c(O)c2)cs1)c1ccc(Cl)cc1Cl
inactive: [1] 18.1 µM | [2] 17.9 µM | [3] 15.2 µM | [4] 22.2 µM | [5] 41.2 µM | [17] 17.3 µM | [6] 34.5 µM | [18] 17.6 µM | [7] 19.7 µM | [19] 25.7 µM | [8] 21.8 µM | [9] 16 µM | [11] 22.1 µM | [12] 17.4 µM | [13] 17.2 µM | [14] 21.3 µM | [20] 12.8 µM | [15] 31.9 µM

COC(=O)C1=C(C)NC(=S)NC1c1ccc(N(CCCl)CCCl)cc1Cl (configuration not stated)
inactive: [1] 2.11 µM | [2] 73.6 µM | [3] 19.6 µM | [4] 12.5 µM | [5] 74.8 µM | [17] 2 µM | [6] 20.9 µM | [18] 16.7 µM | [7] 51.3 µM | [19] > 54.6 µM | [8] 3.04 µM | [9] 2.44 µM | [11] 32.5 µM | [12] 22.6 µM | [13] 19.4 µM | [14] 21 µM | [20] 24.8 µM | [15] 8.2 µM

CC1=C(C(=O)NCc2ccccc2)C(c2ccccc2O)C(C(=O)NCc2ccccc2)=C(C)N1
inactive: [1] 22.2 µM | [2] 19.9 µM | [16] 28.9 µM | [3] 16.6 µM | [5] 22.4 µM | [17] 18.3 µM | [7] 19.3 µM | [19] 23.6 µM | [8] 15.7 µM | [9] 16.1 µM | [11] 17.9 µM | [12] 17.4 µM | [13] 21.1 µM | [20] 14.5 µM | [15] 20.8 µM
